Laboratory results as given in patent US20030044861A1, “Method for diagnosing neoplasia” (priority 1998, published 2003).

Tests used:
HCT116, Colon = test: Growth inhibition of HCT116 cells; type: cell-based; conditions: Homo sapiens, HCT-116
Protocol: (§1) Briefly, suspected neoplastic tissue samples are removed from a patient and grown as explants in vitro. The tissue samples are grown in the presence and absence of a cGMP-specific PDE inhibitor. After being grown in culture, cells are fixed by the addition of cold trichloroacetic acid. Protein levels are measured using the sulforhodamine B (SRB) colorimetric protein stain assay as previously described by Skehan, P., Storeng, R., Scudiero, D., Monks, A., McMahon, J., Vistica, D., Warren, J. T., Bokesch, H., Kenney, S., and Boyd, M. R., “New Colorimetric Assay For Anticancer-Drug Screening,” J. Natl. Cancer Inst. 82: 1107-1112, 1990, which is incorporated herein by reference.
(§2) To show the effectiveness of cGMP-specific PDE inhibition on various forms of neoplasia, (and, therefore, the usefulness of the diagnostic methods of this invention) cGMP-specific PDE inhibitors were tested on a number of neoplastic cell lines. […] Exisulind is defined as (Z)-5-fluoro-2-methyl-1-[[4-(methylsulfonyl)phenyl]methylene]indene-3-yl acetic acid or a salt thereof. The IC50 values were determined by the SRB assay.

A-427, Lung = test: Growth inhibition of A-427 cells; type: cell-based; conditions: Homo sapiens
Protocol: as §1, §2

HT-29 cells = test: Apoptosis and necrosis by morphology (acridine orange/ethidium bromide); type: cell-based; conditions: HT-29 cells treated for six days
Protocol: In one type of apoptosis assay, suspected neoplastic cells are removed from a patient. The cells are then grown in culture in the presence or absence of a cGMP-specific PDE inhibitor. Apoptotic cells are measured by combining both the attached and “floating” compartments of the cultures. The protocol for treating tumor cell cultures with PDE inhibitors and related compounds to obtain a significant amount of apoptosis has been described in the literature. (See, Piazza, G. A., et al., Cancer Research, 55:3110-16, 1995, which is incorporated herein by reference). The novel features of this assay include collecting both floating and attached cells, identification of the optimal treatment times and dose range for observing apoptosis, and identification of optimal cell culture conditions.
Following treatment of neoplastic and normal cells with a test compound, cultures can be assayed for apoptosis and necrosis by fluorescent microscopy following labeling with acridine orange and ethidium bromide. The method for measuring apoptotic cell number has previously been described by Duke & Cohen, “Morphological And Biochemical Assays Of Apoptosis,” Current Protocols In Immunology, Coligan et al., eds. 3.17.1-3.17.16 (1992, which is incorporated herein by reference).
For example, floating and attached cells are collected, and aliquots of cells are centrifuged. The cell pellet is then resuspended in media and a dye mixture containing acridine orange and ethidium bromide. The mixture is then examined microscopically for morphological features of apoptosis.
Apoptotic and necrotic cell death was determined as previously described (Duke and Cohen, In: Current Protocols in Immunology, 3.17.1-3.17.16, New York, John Wiley and Sons, 1992). […] All data were collected from the same experiment.
The diagnostic method of this invention is used to determine whether a particular neoplasia is sensitive to treatment with a cGMP-specific PDE inhibitor. The apoptosis inducing activity for a series of phosphodiesterase inhibitors, specific for different PDEs, was determined. HT-29 cells were treated for 6 days with various inhibitors of phosphodiesterase. Apoptosis and necrosis were determined morphologically after acridine orange and ethidium bromide labeling in accordance with the assay described, supra.

[1] = target: T1, PDE peak A (PDE5) from SW-480 cells (Homo sapiens, UniProt O76074); test: cGMP hydrolysis by PDE peak A; type: biochemical
T1 construct: SW-480 cells are collected and homogenized; The homogenate is centrifuged, and the supernatant is loaded onto a DEAE-Trisacryl M column; endogenous in cells; host or cells: SW-480 human colon carcinoma cells, DEAE-Trisacryl M fraction peak A

[2] = system: PDE peak B (novel cGMP-specific PDE) from SW-480 cells; test: cGMP hydrolysis by PDE peak B; type: biochemical, human
neoplastic cells = test: Apoptosis induction and growth inhibition in neoplastic cells (words only); type: cell-based

IC50 (HCT116, Colon): 45 µM
Mode of inhibition of cGMP hydrolysis, peak A [1]: competitively inhibit
Structure (SMILES): CSc1ccc(/C=C2/C(C)=C(CC(=O)O)c3cc(F)ccc32)cc1 [Sulindac sulfide]
IC50 (A-427, Lung): 90 µM
Apoptotic and necrotic cell death (FIG. 1, in words) (HT-29 cells): capable of causing apoptotic cell death without inducing neoplastic cell necrosis
Mode of inhibition of cGMP hydrolysis, peak B [2]: competitively inhibit
Apoptosis induction in neoplastic cells (in words) (neoplastic cells): induce apoptosis in neoplastic cells
Growth inhibition of neoplastic cells (in words) (neoplastic cells): precisely the opposite
